Measurements reported in patent US20100056519A1, “COMPOSITION AND METHOD FOR REDUCING PLATELET ACTIVATION AND FOR THE TREATMENT OF THROMBOTIC EVENTS” (priority 2008, published 2010).

Legend:
Assay type in all cases: cell-based, human
[1] = tested on: platelets; assay: Ultegra Rapid Platelet-Function Assay (RPFA-TRAP); settings: for Platelet Activation Units (PAU): Mean ± SD
Procedure: (§1) The methodology employed was conventional aggregation induced by 5 μM ADP, 1 μg/ml collagen, 10 μM TRAP, whole blood aggregation with 1 μg/ml collagen, Ultegra, and PFA-100 Analyzers, expression of 14 intact, and TRAP-stimulated major receptors by whole blood flow cytometry were utilized to assess platelet activity after preincubation with escalating concentrations of E5555 (20 ng/ml, 50 ng/ml, and 100 ng/ml). The experiments were performed in healthy volunteers, CAD patients treated with ASA, and CAD patients treated with ASA and clopidogrel combination (n=10, for each group).
(§2) An Informed Consent was obtained from all volunteers. Drug users were excluded from data analysis. The study was approved by Quorum Institutional Review Board. All subjects underwent blood sampling after at least 30 minutes of rest and two or more hours of fasting. Blood (28 ml) was drawn between 8 and 10 a.m. in order to avoid any diurnal influence and sampled from an antecubital vein using a 21-gauge butterfly needle containing 3.2% sodium citrate (1:9 volume) after having discarded the first 1.5 ml of free running blood. Four Vacutainer tubes (7.0 ml) were collected for a total of 28 ml of whole blood-citrate mixture from each study participant. Chronologically, blood samples were delivered to the core laboratory facility within 45 minutes after drawing. Then all tubes of blood-citrate mixture were pooled. One portion of pooled blood (5 ml) was kept as an internal control and pretreated with the vehicle. The remaining blood (23 ml) was used for the in vitro exposure to E5555 at concentrations of 20 ng/ml, 50 ng/ml, and 100 ng/ml. […] The platelet aggregation studies, Rapid Analyzers measures, and flow cytometry preparations were initiated within no more than 110 minutes following the blood draw, incubation with the drug, and preparation of the samples.
Whole blood aggregation was determined using a Chronolog device 592A. The whole blood-citrate mixture was diluted 1:1 with 0.5 ml phosphate buffered saline and gently swirled. The sample then was allowed to warm to 37° C. for 5 minutes then transferred to the assay well. The electrode was then placed in the cuvette and the sample was stimulated with 1 μg/ml collagen. The change in electrical impedance was digitally recorded. Each whole blood sample was analyzed utilizing 2 different clinical devices: • (1) a Rapid Platelet-Function Assay (Ultegra®) (Accumetrics, Inc., San Diego, Calif.), which is a rapid platelet-function assay aspirin cartridge test with TRAP used as agonist. Polystyrene beads coated with fibrinogen are placed in a cartridge along with the peptide that activates thrombin receptor. Anticoagulated whole blood was added to the cartridge, and agglutination between platelets and coated beads was recorded. The data mirrors turbidimetric platelet aggregation and presumably reflects platelet glycoprotein IIb/IIIa blockade. Ultegra RPFA-TRAP Assay results were reported as Platelet Activation Units (PAU); and • (2) Platelet-Function Analyzer PFA-100 ™ (Dade Behring, Deerfield Ill.), which is a high shear-inducing analyzer that simulates primary hemostasis after injury to a small vessel under flow conditions. The device provides a constant negative pressure that aspirates whole blood, which comes into contact with the collagen, coated membrane and then passes through the aperture. The time required to obtain occlusion of the aperture is digitally recorded. The time to aperture occlusion (the closure time) is recorded in seconds and is inversely related to the degree of shear-induced platelet activation. We used ADP/Collagen cartridges in the index study. Both PFA-100 and Ultegra assays were performed in duplicate. An electronic quality control test was performed on each instrument daily prior to performing any patient samples.

[2] = tested on: GPIIb antigen (CD41); assay: Unstimulated whole blood flow cytometry, GPIIb antigen; settings: for GPIIb antigen (CD41), Mean Fluorescence Intensity: unstimulated, Mean ± SD
Procedure: as §1, §2
(§3) Formation of platelet-leukocyte aggregates was assessed by dual labeling with pan-platelet marker (CD151), and then with CD14, the macrophage receptor for endotoxin lipopolysaccharides (PharMingen, and Coulter, San Diego, Calif., USA). The tubes were then covered with aluminum foil and incubated at 37° C. for 40 minutes with gentle rotation. After incubation, samples were immediately analyzed on a Becton Dickinson FACScan flow cytometer. The instrument was set up to measure forward light scatter, and FITC fluorescence. All parameters were collected using four-decade logarithmic amplification. The data was retrieved in list mode files and then analyzed. P selectin was expressed as percent positive cells. Other antigens were expressed as log mean fluorescence intensity.

[3] = tested on: VTNR (CD51/61); assay: Unstimulated whole blood flow cytometry, vitronectin receptor; settings: for VTNR (CD51/61), Mean Fluorescence Intensity: unstimulated, Mean ± SD
Procedure: as §1, §2, §3

[4] = tested on: WEDE15; assay: Unstimulated whole blood flow cytometry, WEDE15; settings: Mean ± SD
Procedure: as §1, §2, §3

[5] = tested on: GPIIb antigen (CD41); assay: TRAP-stimulated whole blood flow cytometry, GPIIb antigen; settings: Mean ± SD
Procedure: as §1, §2, §3
For flow cytometry (TRAP-stimulated) all of the above flow cytometry experiments were identically repeated utilizing prestimulation with 10 μmol/L TRAP for 5 minutes at 37° C. To determine statistics, a Paired Sign Test was used to define significance of differences between vehicle and E5555-treated groups. The Mann-Whitney U test was used to analyze nonparametric data. Normally distributed data were expressed as mean±standard error (m±SE), and skewed data as median (range). All P-values were two sided. All analysis was performed using the SPSS v9.0 program (SPSS Inc., Chicago, Ill.).

[6] = E5555 20 ng/ml, Patients (ASA + C)
[7] = E5555 50 ng/ml, Patients (ASA + C)
[8] = E5555 100 ng/ml, Patients (ASA + C)
[9] = E5555 100 ng/ml, Patients (ASA)
[10] = overall summary, stimulation not stated

## Br.CCOc1cc2c(c(F)c1OCC)C(=N)N(CC(=O)c1cc(N3CCOCC3)c(OC)c(C(C)(C)C)c1)C2 [E5555, 1-(3-tert-butyl-4-methoxy-5-morpholinophenyl)-2-(5,6-diethoxy-7-fluoro-1-imino-1,3-dihydro-2H-isoindol-2-yl)ethanone hydrobromide]
[1]; [6]
  Platelet Activation Units (PAU): 115 ± 21 PAU
[1]; E5555 20 ng/ml, Patients (ASA)
  Platelet Activation Units (PAU): 118 ± 12 PAU
[1]; E5555 20 ng/ml, Volunteers
  Platelet Activation Units (PAU): 270 ± 30 PAU
[1]; [7]
  Platelet Activation Units (PAU): 108 ± 20 PAU
[1]; E5555 50 ng/ml, Patients (ASA)
  Platelet Activation Units (PAU): 114 ± 11 PAU
[1]; E5555 50 ng/ml, Volunteers
  Platelet Activation Units (PAU): 126 ± 20 PAU
[1]; [8]
  Platelet Activation Units (PAU): 112 ± 18 PAU
[1]; [9]
  Platelet Activation Units (PAU): 113 ± 14 PAU
[1]; E5555 100 ng/ml, Volunteers
  Platelet Activation Units (PAU): 117 ± 21 PAU
[1]; overall summary
  Platelet Analyzer readings, fibrinogen binding, effect in words: diminished fibrinogen binding
[1]; volunteers and CAD patients on ASA alone or with clopidogrel
  Ultegra Analyzer PAU, effect in words: reduction of PAU
[2]; [10]
  GP IIb/IIIa antigen expression, effect in words: significant reduction
[2]; [6]
  GPIIb antigen (CD41), Mean Fluorescence Intensity: 219 ± 25 MFI
[2]; E5555 20 ng/ml, Patients (ASA)
  GPIIb antigen (CD41), Mean Fluorescence Intensity: 391 ± 44 MFI
[2]; E5555 20 ng/ml, Volunteers
  GPIIb antigen (CD41), Mean Fluorescence Intensity: 423 ± 27 MFI
[2]; [7]
  GPIIb antigen (CD41), Mean Fluorescence Intensity: 240 ± 32 MFI
[2]; E5555 50 ng/ml, Patients (ASA)
  GPIIb antigen (CD41), Mean Fluorescence Intensity: 404 ± 31 MFI
[2]; E5555 50 ng/ml, Volunteers
  GPIIb antigen (CD41), Mean Fluorescence Intensity: 409 ± 25 MFI
[2]; [8]
  GPIIb antigen (CD41), Mean Fluorescence Intensity: 233 ± 30 MFI
[2]; [9]
  GPIIb antigen (CD41), Mean Fluorescence Intensity: 396 ± 42 MFI
[2]; E5555 100 ng/ml, Volunteers
  GPIIb antigen (CD41), Mean Fluorescence Intensity: 416 ± 24 MFI
[3]; [10]
  vitronectin receptor expression, effect in words: significant reduction
[3]; [6]
  VTNR (CD51/61), Mean Fluorescence Intensity: 7.9 ± 1.8 MFI
[3]; E5555 20 ng/ml, Patients (ASA)
  VTNR (CD51/61), Mean Fluorescence Intensity: 8.4 ± 1.5 MFI
[3]; E5555 20 ng/ml, Volunteers
  VTNR (CD51/61), Mean Fluorescence Intensity: 8.7 ± 0.6 MFI
[3]; [7]
  VTNR (CD51/61), Mean Fluorescence Intensity: 8.2 ± 1.6 MFI
[3]; E5555 50 ng/ml, Patients (ASA)
  VTNR (CD51/61), Mean Fluorescence Intensity: 8.6 ± 2.1 MFI
[3]; E5555 50 ng/ml, Volunteers
  VTNR (CD51/61), Mean Fluorescence Intensity: 9.1 ± 1.0 MFI
[3]; [8]
  VTNR (CD51/61), Mean Fluorescence Intensity: 9.0 ± 2.4 MFI
[3]; [9]
  VTNR (CD51/61), Mean Fluorescence Intensity: 8.3 ± 14 MFI
[3]; E5555 100 ng/ml, Volunteers
  VTNR (CD51/61), Mean Fluorescence Intensity: 9.6 ± 1.1 MFI
[4]; [6]
  WEDE15, Mean Fluorescence Intensity: 30 ± 8 MFI
[4]; E5555 20 ng/ml, Patients (ASA)
  WEDE15, Mean Fluorescence Intensity: 40 ± 11 MFI
[4]; E5555 20 ng/ml, Volunteers
  WEDE15, Mean Fluorescence Intensity: 40 ± 9 MFI
[4]; [7]
  WEDE15, Mean Fluorescence Intensity: 27 ± 6 MFI
[4]; E5555 50 ng/ml, Patients (ASA)
  WEDE15, Mean Fluorescence Intensity: 38 ± 8 MFI
[4]; E5555 50 ng/ml, Volunteers
  WEDE15, Mean Fluorescence Intensity: 41 ± 6 MFI
[4]; [8]
  WEDE15, Mean Fluorescence Intensity: 29 ± 12 MFI
[4]; [9]
  WEDE15, Mean Fluorescence Intensity: 35 ± 5 MFI
[4]; E5555 100 ng/ml, Volunteers
  WEDE15, Mean Fluorescence Intensity: 40 ± 10 MFI
[5]; [6]
  GPIIb antigen (CD41), Mean Fluorescence Intensity: 328 ± 41 MFI
[5]; E5555 20 ng/ml, Patients (ASA)
  GPIIb antigen (CD41), Mean Fluorescence Intensity: 471 ± 38 MFI
[5]; E5555 20 ng/ml, Volunteers
  GPIIb antigen (CD41), Mean Fluorescence Intensity: 504 ± 18 MFI
[5]; [7]
  GPIIb antigen (CD41), Mean Fluorescence Intensity: 209 ± 30 MFI
[5]; E5555 50 ng/ml, Patients (ASA)
  GPIIb antigen (CD41), Mean Fluorescence Intensity: 376 ± 35 MFI
[5]; E5555 50 ng/ml, Volunteers
  GPIIb antigen (CD41), Mean Fluorescence Intensity: 390 ± 31 MFI
[5]; [8]
  GPIIb antigen (CD41), Mean Fluorescence Intensity: 176 ± 19 MFI
[5]; [9]
  GPIIb antigen (CD41), Mean Fluorescence Intensity: 304 ± 40 MFI
[5]; E5555 100 ng/ml, Volunteers
  GPIIb antigen (CD41), Mean Fluorescence Intensity: 364 ± 37 MFI
